# Experimental data as given in patent publication US20210278408A1, “METHODS OF TREATMENT OF CANCER WITH SUBSTITUTED PYRROLE AND PYRAZOLE COMPOUNDS AND DIAGNOSIS OF CANCERS SUSCEPTIBLE TO TREATMENT WITH SUBSTITUTED PYRROLE AND PYRAZOLE COMPOUNDS” (Bantam Pharmaceutical, LLC, priority 2018, published 2021).
# Where two headings read alike, the source gives them in different places.
# Tested on: 407 cancer cell lines
# Assay: Cell viability of cancer cell lines (IC50), CellTiter-Glo Viability Assay, 96 h
# Type: cell-based
# Conditions: Homo sapiens, read-out: Absolute IC50
# Method: Viability was determined by using the 50% inhibitory concentration (IC50) as determined with the CellTiter-Glo® Viability Assay (Promega).
# Experiments were initiated by first thawing and equilibrating the CellTiter-Glo® Buffer to room temperature. The lyophilized CellTiter-Glo® Substrate was also equilibrated to room temperature. The lyophilized substrate was reconstituted with the CellTiter-Glo® buffer to form the CellTiter-Glo® Reagent.
# Cells were harvested during the logarithmic growth period, counted, and the cell concentration adjusted to 4.44×10^4 cells/mL using culture medium.
# Cells were allowed to grow overnight and the following day, the TO reading was obtained by adding 10 μL culture medium to each well of Plate A. The plate was allowed to equilibrate at room temperature for thirty minutes, after which 50 μL CellTiter-Glo® reagent was added to each well. The contents were mixed for 5 min on an orbital shaker to induce cell lysis. Plates were incubated for 20 minutes to stabilize the luminescent signal and the TO luminescence recorded.
# Test plate B was incubated for 96 h in the humidified incubator at 37° C. with 5% CO2.
# Following the incubation, the plate was equilibrated at room temperature for thirty minutes. CellTiter-Glo® (50 μL) was added to each well of the plate and contents mixed for five minutes on an orbital shaker to induce cell lysis. The luminescent signal was allowed to stabilize at room temperature for 20 minutes and the luminescence recorded.
# IC50 (EC50) was calculated using a dose-response curve, fitted using a nonlinear regression model with a sigmoidal dose response. Survival rate was calculated using the formula:
# The Surviving rate (%)=(LumTest article−LumMedium control)/(LumNon-treated−LumMedium control)×100%.
# Absolute IC50 (EC50) was calculated according to the dose-response curve generated by the statistical software (GraphPad Prism 5.0).
compound,measurement,setting,value
"Cc1nn(-c2nc(-c3ccc(C(F)(F)F)cc3)c(SC(C)C)s2)c(C(=O)O)c1-c1cccc(F)c1 [Compound A197, 4-(3-fluorophenyl)-1-(5-(isopropylthio)-4-(4-(trifluoromethyl)phenyl)thiazol-2-yl)-3-methyl-1H-pyrazole-5-carboxylic acid]",IC50,"NCI-H292, 96 h, NCI-H292 cells, 96 h",> 30 µM
same,IC50,"NCI-H358, 96 h, NCI-H358 cells, 96 h",0.38 µM
same,IC50,"NCI-H441, 96 h, NCI-H441 cells, 96 h",> 30 µM
same,IC50,"NCI-H446, 96 h, NCI-H446 cells, 96 h",> 30 µM
same,IC50,"NCI-H460, 96 h, NCI-H460 cells, 96 h",> 30 µM
same,IC50,"NCI-H508, 96 h, NCI-H508 cells, 96 h",1.33 µM
same,IC50,"NCI-H520, 96 h, NCI-H520 cells, 96 h",0.3 µM
same,IC50,"NCI-H522, 96 h, NCI-H522 cells, 96 h",> 30 µM
same,IC50,"NCI-H526, 96 h, NCI-H526 cells, 96 h",> 30 µM
same,IC50,"NCI-H596, NCI-H596",> 30 µM
same,IC50,"NCI-H661, 96 h, NCI-H661 cells, 96 h",> 30 µM
same,IC50,"NCI-H716, 96 h, NCI-H716 cells, 96 h",1.57 µM
same,IC50,"NCI-H727, 96 h, NCI-H727 cells, 96 h",> 30 µM
same,IC50,"NCI-H747, 96 h, NCI-H747 cells, 96 h",> 30 µM
same,IC50,"NCI-H929, NCI-H929",19 µM
same,IC50,"NCI-H1048, 96 h, NCI-H1048 cells, 96 h",> 30 µM
same,IC50,"NCI-H1155, 96 h, NCI-H1155 cells, 96 h",0.46 µM
same,IC50,"NCI-H1299, 96 h, NCI-H1299 cells, 96 h",0.78 µM
same,IC50,"NCI-H1373, NCI-H1373",0.8 µM
same,IC50,"NCI-H1395, NCI-H1395",0.37 µM
same,IC50,"NCI-H1437, 96 h, NCI-H1437 cells, 96 h",0.31 µM
same,IC50,"NCI-H1563, NCI-H1563",> 30 µM
same,IC50,"NCI-H1573, 96 h, NCI-H1573 cells, 96 h",0.46 µM
same,IC50,"NCI-H1581, 96 h, NCI-H1581 cells, 96 h",> 30 µM
same,IC50,"NCI-H1648, 96 h, NCI-H1648 cells, 96 h",> 30 µM
same,IC50,"NCI-H1650, NCI-H1650",> 30 µM
same,IC50,"NCI-H1651, 96 h, NCI-H1651 cells, 96 h",0.86 µM
same,IC50,"NCI-H1666, 96 h, NCI-H1666 cells, 96 h",> 30 µM
same,IC50,"NCI-H1703, 96 h, NCI-H1703 cells, 96 h",0.36 µM
same,IC50,"NCI-H1792, 96 h, NCI-H1792 cells, 96 h",1.27 µM
same,IC50,"NCI-H1838, 96 h, NCI-H1838 cells, 96 h",> 30 µM
same,IC50,"NCI-H1975, 96 h, NCI-H1975 cells, 96 h",> 30 µM
same,IC50,"NCI-H1993, 96 h, NCI-H1993 cells, 96 h",1.2 µM
same,IC50,"NCI-H2009, NCI-H2009",4.84 µM
same,IC50,"NCI-H2052, NCI-H2052",> 30 µM
same,IC50,"NCI-H2087, 96 h, NCI-H2087 cells, 96 h",> 30 µM
same,IC50,"NCI-H2122, 96 h, NCI-H2122 cells, 96 h",0.27 µM
same,IC50,"NCI-H2170, 96 h, NCI-H2170 cells, 96 h",0.5 µM
same,IC50,"NCI-H2228, 96 h, NCI-H2228 cells, 96 h",0.61 µM
same,IC50,"NCI-H2452, NCI-H2452",> 30 µM
same,IC50,"NCI-H3122, 96 h, NCI-H3122 cells, 96 h",0.39 µM
same,IC50,"NCI-N87, 96 h",1.47 µM
same,IC50,"NUGC-3, 96 h, NUGC-3 cells, 96 h",22.9 µM
same,IC50,"NUGC-4, 96 h, NUGC-4 cells, 96 h",1.53 µM
same,IC50,"OCI-AML-3, OCI-AML3",> 30 µM
same,IC50,"OCI-LY19, OCI-LY-19",0.95 µM
same,IC50,"OCI-Ly7, 96 h, OCI-LY7 cells, 96 h",0.68 µM
same,IC50,"OE19, 96 h",> 30 µM
same,IC50,"OPM-2, OPM2",0.37 µM
same,IC50,"OS-RC-2, OS-RC-2",> 30 µM
same,IC50,"OVCAR-3, 96 h, OVCAR-3 cells, 96 h",> 30 µM
same,IC50,"OVCAR-8, 96 h, OVCAR-8 cells, 96 h",1.02 µM
same,IC50,"PANC-1, PANC-1",2.7 µM
same,IC50,"PC-3, PC-3",> 30 µM
same,IC50,"PC-9, 96 h, PC-9 cells, 96 h",1.11 µM
same,IC50,"PLC-PRF-5, PLC/PRF/5",1.24 µM
same,IC50,"Pfeiffer, 96 h, Pfeiffer cells, 96 h",0.18 µM
same,IC50,REH,0.31 µM
same,IC50,RKO,23.6 µM
same,IC50,"RL95-2, 96 h, RL95-2 cells, 96 h",0.42 µM
same,IC50,"RPMI-2650, 96 h, RPMI-2650 cells, 96 h",0.81 µM
same,IC50,"RPMI-8226, 96 h, RPMI 8226 cells, 96 h",0.75 µM
same,IC50,"RS4-11, RS4;11",0.69 µM
same,IC50,"RT112/84, RT112/84",12.5 µM
same,IC50,"RT-4, 96 h, RT4 cells, 96 h",0.83 µM
same,IC50,"Raji, 96 h, Raji cells, 96 h",0.45 µM
same,IC50,"Ramos, 96 h, Ramos cells, 96 h",0.76 µM
same,IC50,"SAOS-2, Saos-2",0.82 µM
same,IC50,"SCC-4, 96 h",> 30 µM
same,IC50,"SCC-9, 96 h, SCC-9 cells, 96 h",> 30 µM
same,IC50,"SCC-15, 96 h, SCC-15 cells, 96 h",> 30 µM
same,IC50,"SCC-25, 96 h, SCC-25 cells, 96 h",> 30 µM
same,IC50,"SF-126, 96 h, SF-126 cells, 96 h",> 30 µM
same,IC50,"SF-268, 96 h, SF268 cells, 96 h",> 30 µM
same,IC50,SH-SY5Y,> 30 µM
same,IC50,"SJSA-1, SJSA-1",> 30 µM
same,IC50,"SK-BR-3, SK-BR-3",29.6 µM
same,IC50,"SK-CO-1, 96 h, SK-CO-1 cells, 96 h",1.12 µM
same,IC50,"SK-HEP1, 96 h, SK-HEP-1 cells, 96 h",> 30 µM
same,IC50,"SK-LU-1, 96 h, SK-LU-1 cells, 96 h",1.05 µM
same,IC50,"SK-MEL-5, 96 h",> 30 µM
same,IC50,"SK-MEL-28, 96 h",> 30 µM
same,IC50,"SK-MES-1, SK-MES-1",1.21 µM
same,IC50,"SK-N-FI, 96 h, SK-N-FI cells, 96 h",1.19 µM
same,IC50,SK-N-SH,> 30 µM
same,IC50,"SK-NEP-1, 96 h, SK-NEP-1 cells, 96 h",1.06 µM
same,IC50,"SK-OV-3, 96 h, SK-OV-3 cells, 96 h",> 30 µM
same,IC50,"SK-UT-1, 96 h, SK-UT-1 cells, 96 h",> 30 µM
same,IC50,"SNU1, 96 h, SNU-1 cells, 96 h",10.7 µM
same,IC50,"SNU-5, 96 h",1.83 µM
same,IC50,"SNU-354, SNU-354",> 30 µM
same,IC50,"SNU-387, SNU-387",> 30 µM
same,IC50,"SNU-398, SNU-398",0.22 µM
same,IC50,"SNU-423, 96 h, SNU-423 cells, 96 h",> 30 µM
same,IC50,"SNU-449, SNU-449",24.3 µM
same,IC50,"SNU-475, 96 h, SNU-475 cells, 96 h",2.51 µM
same,IC50,"SNU-638, 96 h, SNU-638 cells, 96 h",> 30 µM
same,IC50,"ST486, 96 h, ST486 cells, 96 h",0.22 µM
same,IC50,"SU-DHL-1, SU-DHL-1",0.33 µM
same,IC50,"SU-DHL-4, SU-DHL-4",1.07 µM
same,IC50,"SU-DHL-5, 96 h, SU-DHL-5 cells, 96 h",0.42 µM
same,IC50,"SU-DHL-6, 96 h, SU-DHL-6 cells, 96 h",1.05 µM
same,IC50,"SU-DHL-8, SU-DHL-8",0.75 µM
same,IC50,"SUM-159-PT, SUM159PT",17.8 µM
same,IC50,"SUP-B15, SUP-B15",1.22 µM
same,IC50,"SW13, SW-13",0.35 µM
same,IC50,"SW48, 96 h, SW48 cells, 96 h",> 30 µM
same,IC50,"SW480, SW480",> 30 µM
same,IC50,"SW626, 96 h, SW626 cells, 96 h",> 30 µM
same,IC50,"SW684, 96 h, SW684 cells, 96 h",> 30 µM
same,IC50,"SW756, 96 h, SW756 cells, 96 h",28.4 µM
same,IC50,"SW780, 96 h, SW780 cells, 96 h",22.6 µM
same,IC50,"SW837, 96 h, SW837 cells, 96 h",> 30 µM
same,IC50,"SW948, 96 h, SW948 cells, 96 h",> 30 µM
same,IC50,"SW982, 96 h, SW982 cells, 96 h",> 30 µM
same,IC50,"SW 1116, 96 h, SW1116 cells, 96 h",> 30 µM
same,IC50,"SW1417, 96 h, SW1417 cells, 96 h",> 30 µM
same,IC50,"SW1990, SW1990",18.1 µM
same,IC50,"SiHa, 96 h, SiHa cells, 96 h",> 30 µM
same,IC50,T47D,> 30 µM
same,IC50,"T84, T84",> 30 µM
same,IC50,"T-24, 96 h, T24 cells, 96 h",> 30 µM
same,IC50,"TE-1, TE-1",9.77 µM
same,IC50,"TF-1, TF-1",> 30 µM
same,IC50,"THP-1, 96 h, THP-1 cells, 96 h",0.21 µM
